Assay results as given in ChEMBL document CHEMBL3421538, “Structure-activity relationships and molecular studies of novel arylpiperazinylalkyl purine-2,4-diones and purine-2,4,8-triones with antidepressant and anxiolytic-like activity” (Eur J Med Chem, 2015).
Calls of active or inactive are those of the source. No cut-off for these calls is given here.

Experiments:
Mus musculus [1] = assay: Toxicity in Swiss mouse assessed as spontaneous locomotor activity at 5 to 20 mg/kg, ip measured during 2 to 6 mins; type: organism-based; design: route intraperitoneal; settings: in vivo
[2] = biological target: T1, 5-hydroxytryptamine receptor 7 (Homo sapiens, UniProt P34969); assay: Displacement of [3H]LSD from human recombinant 5-HT7 receptor expressed in CHOK1 cells incubated for 60 mins by microbeta plate reader based method; type: cell-based, CHO-K1
D(2) dopamine receptor [3] = biological target: T2, D(2) dopamine receptor (Homo sapiens, UniProt P14416); assay: Displacement of [3H]N-methylspiperone from human recombinant dopamine D2 receptor expressed in CHOK1 cells incubated for 60 mins by microbeta plate reader based method; type: cell-based, CHO-K1
[4] = Selectivity index, ratio of Ki for rat hippocampus 5-HT1A receptor to Ki for human recombinant 5-HT7 receptor
[5] = biological target: T3, 5-hydroxytryptamine receptor 6 (Homo sapiens, UniProt P50406); assay: Displacement of [3H]LSD from human recombinant 5-HT6 receptor expressed in HEK293 cells incubated for 60 mins by microbeta plate reader based method; type: cell-based
[6] = biological target: T4, 5-hydroxytryptamine receptor 1A (Homo sapiens) (UniProt P08908); assay: Agonist activity at human 5-HT1A receptor expressed in HEK293 cells assessed as stimulation of cAMP levels at 1 uM relative to 8-OH-DPAT; type: functional, cell-based
T4 sequence (whole entry): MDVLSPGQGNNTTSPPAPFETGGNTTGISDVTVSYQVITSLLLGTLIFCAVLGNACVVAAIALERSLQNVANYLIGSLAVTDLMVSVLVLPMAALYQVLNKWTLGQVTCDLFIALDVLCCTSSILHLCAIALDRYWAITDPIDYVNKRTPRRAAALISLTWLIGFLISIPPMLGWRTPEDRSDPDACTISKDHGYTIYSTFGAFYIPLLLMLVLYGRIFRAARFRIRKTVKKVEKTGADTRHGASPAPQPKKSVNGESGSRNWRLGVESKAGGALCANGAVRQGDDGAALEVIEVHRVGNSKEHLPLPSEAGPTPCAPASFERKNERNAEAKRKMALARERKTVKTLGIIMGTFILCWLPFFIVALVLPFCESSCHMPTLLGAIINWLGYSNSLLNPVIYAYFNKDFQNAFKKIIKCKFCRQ

[7] = biological target: T4, 5-hydroxytryptamine receptor 1A (Homo sapiens); assay: Agonist activity at human 5-HT1A receptor expressed in HEK293 cells assessed as stimulation of cAMP levels at 0.1 uM relative to 8-OH-DPAT; type: functional, cell-based
[8] = biological target: T1, 5-hydroxytryptamine receptor 7; assay: Agonist activity at human 5-HT7 receptor expressed in HEK293 cells assessed as stimulation of cAMP levels at 1 uM relative to 5HT; type: functional, cell-based
[9] = biological target: T1, 5-hydroxytryptamine receptor 7; assay: Agonist activity at human 5-HT7 receptor expressed in HEK293 cells assessed as stimulation of cAMP levels at 0.1 uM relative to 5HT; type: functional, cell-based
D(2) dopamine receptor [10] = biological target: T2, D(2) dopamine receptor; assay: Agonist activity at human D2L receptor expressed in HEK293 cells assessed as stimulation of cAMP levels at 1 uM relative to dopamine; type: functional, cell-based
D(2) dopamine receptor [11] = biological target: T2, D(2) dopamine receptor; assay: Agonist activity at human D2L receptor expressed in HEK293 cells assessed as stimulation of cAMP levels at 0.1 uM relative to dopamine; type: functional, cell-based
[12] = biological target: T4, 5-hydroxytryptamine receptor 1A (Homo sapiens); assay: Antagonist activity against human 5-HT1A receptor expressed in HEK293 cells assessed as inhibition of […]-induced cAMP levels at 1 uM; type: functional, cell-based
[13] = biological target: T4, 5-hydroxytryptamine receptor 1A (Homo sapiens); assay: Antagonist activity against human 5-HT1A receptor expressed in HEK293 cells assessed as inhibition of […]-induced cAMP levels at 0.1 uM; type: functional, cell-based
[14] = biological target: T1, 5-hydroxytryptamine receptor 7; assay: Antagonist activity against human 5-HT7 receptor expressed in HEK293 cells assessed as inhibition of 5-HT-induced cAMP levels at 1 uM; type: functional, cell-based
[15] = biological target: T1, 5-hydroxytryptamine receptor 7; assay: Antagonist activity against human 5-HT7 receptor expressed in HEK293 cells assessed as inhibition of 5-HT-induced cAMP levels at 0.1 uM; type: functional, cell-based
D(2) dopamine receptor [16] = biological target: T2, D(2) dopamine receptor; assay: Antagonist activity against human dopamine D2L receptor expressed in HEK293 cells assessed as inhibition of […]-induced cAMP levels at 1 uM; type: functional, cell-based
D(2) dopamine receptor [17] = biological target: T2, D(2) dopamine receptor; assay: Antagonist activity against human dopamine D2L receptor expressed in HEK293 cells assessed as inhibition of […]-induced cAMP levels at 0.1 uM; type: functional, cell-based
Mus musculus [18] = assay: Antidepressant-like activity in Swiss mouse assessed as reduction in immobility time at 0.625 to 5 mg/kg, ip administered 60 mins before test; type: functional, organism-based
Mus musculus [19] = assay: Antidepressant-like activity in Swiss mouse assessed as reduction in immobility time at 1.25 mg/kg, ip administered 60 mins before test; type: functional; design: scale not given: the % may be the effect or the level left; settings: route intraperitoneal
Mus musculus [20] = assay: Antidepressant-like activity in ip dosed Swiss mouse assessed as reduction in immobility time administered 60 mins before test; type: functional; settings: read-out: MED
Mus musculus [21] = assay: Potency index, ratio of MED for imipramine to MED for compound for antidepressant-like activity in ip dosed Swiss mouse; type: functional
Mus musculus [22] = assay: Toxicity in Swiss mouse assessed as spontaneous locomotor activity at 0.625 to 5 mg/kg, ip measured during 2 to 6 mins; type: organism-based; design: route intraperitoneal; settings: in vivo
Mus musculus [23] = assay: Anxiolytic-like activity in Swiss mouse assessed as increase in number of punished crossings measured during 60 seconds period at 1.25 to 5 mg/kg, ip by four-plate test; type: functional, organism-based
[24] = biological target: T5, 5-hydroxytryptamine receptor 1A (Rattus norvegicus, UniProt P19327); assay: Displacement of [3H]8-OH-DPAT from rat hippocampus 5-HT1A receptor incubated for 20 mins by microbeta plate reader based method
T5 sequence (P19327 whole entry): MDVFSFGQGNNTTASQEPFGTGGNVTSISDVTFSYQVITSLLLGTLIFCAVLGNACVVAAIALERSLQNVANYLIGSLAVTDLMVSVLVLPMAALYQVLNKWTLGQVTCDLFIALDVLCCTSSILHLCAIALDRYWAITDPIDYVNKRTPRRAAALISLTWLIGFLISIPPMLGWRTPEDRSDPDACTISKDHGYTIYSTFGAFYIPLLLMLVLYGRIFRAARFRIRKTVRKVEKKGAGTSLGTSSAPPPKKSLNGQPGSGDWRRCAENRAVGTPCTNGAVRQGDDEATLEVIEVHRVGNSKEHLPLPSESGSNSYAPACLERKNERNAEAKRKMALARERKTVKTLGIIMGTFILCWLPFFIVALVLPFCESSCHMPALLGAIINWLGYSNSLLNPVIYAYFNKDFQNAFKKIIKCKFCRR

Mus musculus [25] = assay: Antidepressant-like activity in Swiss mouse assessed as reduction in immobility time at 2.5 to 10 mg/kg, ip administered 60 mins before test; type: functional, organism-based
Mus musculus [26] = assay: Antidepressant-like activity in Swiss mouse assessed as reduction in immobility time at 10 mg/kg, ip administered 60 mins before test; type: functional; design: scale not given: the % may be the effect or the level left; settings: route intraperitoneal
Mus musculus [27] = assay: Toxicity in Swiss mouse assessed as spontaneous locomotor activity at 2.5 to 10 mg/kg, ip measured during 2 to 6 mins; type: organism-based; design: route intraperitoneal; settings: in vivo
Mus musculus [28] = assay: Anxiolytic-like activity in Swiss mouse assessed as increase in number of punished crossings measured during 60 seconds period at 2.5 mg/kg, ip by four-plate test; type: functional; settings: route intraperitoneal
Mus musculus [29] = assay: Anxiolytic-like activity in Swiss mouse assessed as increase in number of punished crossings measured during 60 seconds period at 0.625 to 10 mg/kg, ip by four-plate test; type: functional, organism-based
Mus musculus [30] = assay: Toxicity in Swiss mouse assessed as spontaneous locomotor activity at 0.625 to 10 mg/kg, ip; type: organism-based; design: dose 0.625-10 mg/kg, route intraperitoneal; settings: in vivo
[31] = biological target: T6, 5-hydroxytryptamine receptor 1A (Rattus norvegicus) (UniProt P19327); assay: Displacement of [3H]8-OH-DPAT from rat hippocampus 5-HT1A receptor assessed as total radioligand binding at 1 uM incubated for 20 mins by microbeta plate reader based method
T6 sequence (whole entry): T5 sequence (P19327 whole entry)

[32] = biological target: T6, 5-hydroxytryptamine receptor 1A (Rattus norvegicus); assay: Displacement of [3H]8-OH-DPAT from rat hippocampus 5-HT1A receptor assessed as total radioligand binding at 1.66 x 10^-7 M incubated for 20 mins by microbeta plate reader based method
[33] = biological target: T3, 5-hydroxytryptamine receptor 6; assay: Displacement of [3H]LSD from human recombinant 5-HT6 receptor expressed in HEK293 cells assessed as total radioligand binding at 1 uM incubated for 60 mins by microbeta plate reader based method; type: cell-based
[34] = biological target: T3, 5-hydroxytryptamine receptor 6; assay: Displacement of [3H]LSD from human recombinant 5-HT6 receptor expressed in HEK293 cells assessed as total radioligand binding at 1.66 x 10^-7 M incubated for 60 mins by microbeta plate reader based method; type: cell-based
[35] = biological target: D(3) dopamine receptor (Homo sapiens) (UniProt P35462); assay: Displacement of [3H]N-methylspiperone from dopamine D3 receptor (unknown origin) assessed as total radioligand binding at 1 uM incubated for 60 mins by microbeta plate reader based method
[36] = biological target: D(3) dopamine receptor (Homo sapiens) (UniProt P35462); assay: Displacement of [3H]N-methylspiperone from dopamine D3 receptor (unknown origin) assessed as total radioligand binding at 1.66 x 10^-7 M incubated for 60 mins by microbeta plate reader based method

T2 sequence (P14416 whole entry): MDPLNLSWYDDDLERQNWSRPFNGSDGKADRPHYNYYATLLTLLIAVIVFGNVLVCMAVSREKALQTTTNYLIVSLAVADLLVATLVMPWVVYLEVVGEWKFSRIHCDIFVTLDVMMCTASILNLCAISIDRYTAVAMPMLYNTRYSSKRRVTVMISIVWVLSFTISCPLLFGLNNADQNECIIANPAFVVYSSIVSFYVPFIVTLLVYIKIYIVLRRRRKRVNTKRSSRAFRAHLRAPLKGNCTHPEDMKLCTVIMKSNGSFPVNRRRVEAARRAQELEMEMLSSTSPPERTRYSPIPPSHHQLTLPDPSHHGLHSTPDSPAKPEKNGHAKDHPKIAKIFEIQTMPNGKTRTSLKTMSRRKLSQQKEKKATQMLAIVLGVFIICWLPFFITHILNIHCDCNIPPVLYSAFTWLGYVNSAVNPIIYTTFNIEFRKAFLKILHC
T1 sequence (P34969 whole entry): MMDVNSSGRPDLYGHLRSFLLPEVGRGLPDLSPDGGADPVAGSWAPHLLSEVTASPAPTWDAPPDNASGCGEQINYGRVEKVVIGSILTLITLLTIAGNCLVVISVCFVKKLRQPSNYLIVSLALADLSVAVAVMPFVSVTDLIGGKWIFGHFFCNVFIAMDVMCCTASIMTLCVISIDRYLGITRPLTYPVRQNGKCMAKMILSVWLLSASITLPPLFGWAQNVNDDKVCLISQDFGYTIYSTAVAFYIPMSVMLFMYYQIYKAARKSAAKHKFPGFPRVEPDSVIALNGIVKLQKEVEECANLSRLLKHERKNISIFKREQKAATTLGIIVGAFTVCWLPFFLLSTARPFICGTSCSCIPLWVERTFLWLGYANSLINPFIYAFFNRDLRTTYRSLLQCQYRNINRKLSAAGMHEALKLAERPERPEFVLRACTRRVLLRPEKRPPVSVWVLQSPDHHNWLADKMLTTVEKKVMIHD
T3 sequence (P50406 whole entry): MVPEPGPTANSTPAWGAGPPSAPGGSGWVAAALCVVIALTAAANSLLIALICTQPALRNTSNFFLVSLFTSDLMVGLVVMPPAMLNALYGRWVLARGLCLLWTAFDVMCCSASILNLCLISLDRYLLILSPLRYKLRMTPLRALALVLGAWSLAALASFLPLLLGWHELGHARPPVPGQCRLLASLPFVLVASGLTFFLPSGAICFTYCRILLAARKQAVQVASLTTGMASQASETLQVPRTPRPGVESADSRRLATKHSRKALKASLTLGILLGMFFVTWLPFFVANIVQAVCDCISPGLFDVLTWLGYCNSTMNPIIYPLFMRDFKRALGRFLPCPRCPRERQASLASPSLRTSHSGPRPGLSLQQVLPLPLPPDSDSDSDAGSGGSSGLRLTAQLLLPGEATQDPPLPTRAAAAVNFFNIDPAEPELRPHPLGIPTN
D(3) dopamine receptor (Homo sapiens), sequence (P35462 whole entry): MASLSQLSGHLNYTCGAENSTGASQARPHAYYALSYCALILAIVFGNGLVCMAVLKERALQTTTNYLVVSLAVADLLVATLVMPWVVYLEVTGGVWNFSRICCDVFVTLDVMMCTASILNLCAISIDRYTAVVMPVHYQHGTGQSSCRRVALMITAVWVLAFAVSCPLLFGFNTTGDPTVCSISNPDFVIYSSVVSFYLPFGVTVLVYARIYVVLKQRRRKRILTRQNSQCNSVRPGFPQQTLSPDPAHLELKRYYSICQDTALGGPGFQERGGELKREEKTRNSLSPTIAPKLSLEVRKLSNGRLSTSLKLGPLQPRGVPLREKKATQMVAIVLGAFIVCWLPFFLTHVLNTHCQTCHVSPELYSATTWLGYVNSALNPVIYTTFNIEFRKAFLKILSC

| Ki [2] | Ki (D(2) dopamine receptor [3]) | Ki [5] | Activity [6] | Activity [7] | Activity (D(2) dopamine receptor [10]) | Activity (D(2) dopamine receptor [11]) | inhibition [12] | inhibition [13] | inhibition (D(2) dopamine receptor [16]) | inhibition (D(2) dopamine receptor [17]) | Ki [24] | Structure (SMILES) | further results |
| --- | --- | --- | --- | --- | --- | --- | --- | --- | --- | --- | --- | --- | --- |
|  |  |  |  |  |  |  |  |  |  |  |  | CN(C)CCCN1c2ccccc2CCc2ccccc21.Cl [IMIPRAMINE HYDROCHLORIDE] | Activity (Mus musculus [1]): Non-toxic |
| 122 nM | 9 nM | 45 nM | 2.3% | -7% | 7.7% | 3.1% | 34.7% | 71.8% | 75.6% | 16.5% | 93 nM | Cn1c(=O)c2c(nc3n(CCCCCN4CCN(c5ccc(Cl)cc5)CC4)c(-c4ccccc4)cn23)n(C)c1=O | Ratio Ki [4]: 0.7; Activity [8]: 9.1%; Activity [9]: 1.9%; inhibition [14]: 22.1%; inhibition [15]: -8.4%; Activity (Mus musculus [18]): Active; Activity (Mus musculus [19]): 40%; minimal effective dose (Mus musculus [20]): 1.25 mg/kg; Ratio (Mus musculus [21]): 4; Activity (Mus musculus [22]): Non-toxic; Activity (Mus musculus [23]): inactive |
| 381 nM | 27 nM | 510 nM | 61.5% | 55.7% | 37.6% | 35.3% | 105% | 102% | 73.8% | 38.4% | < 1 nM | Cc1cccc(N2CCN(CCCCn3c(C)cn4c5c(=O)n(C)c(=O)n(C)c5nc34)CC2)c1C | Activity (Mus musculus [25]): Active; Activity (Mus musculus [26]): 20%; Activity (Mus musculus [27]): Non-toxic; Activity (Mus musculus [28]): 67%; Activity (Mus musculus [29]): Active; Activity (Mus musculus [30]): Non-toxic; Activity [31]: 42%; Activity [32]: 75%; Activity [33]: 68%; Activity [34]: 81%; Activity [35]: 34%; Activity [36]: 43% |
